Peptide text beside a SMILES is read from it. * marks the point of attachment. AMC = Cc1cc(=O)oc2cc(N*)ccc12; Cbz = O=C(OCc1ccccc1)*
Assays:
[1] = system: S. mansoni legumain; conditions: background art, cited from earlier work
[2] = biological target: Gingipain K (Porphyromonas gingivalis, UniProt Q51817); assay: biochemical; assay type: biochemical; conditions: for k2 Gingipain K: Table 3, Suc-Ala-Phe-Lys-AMC substrate, pH 8.0; for kinact/KI: pH 8, read-out: kobs/[I] Gingipain K
[3] = system: Gingipain R; assay: Gingipain R inhibition; assay type: biochemical; conditions: Table 3
[4] = biological target: Clostripain (Hathewaya histolytica, UniProt P09870); conditions: Table 3; Z-Phe-Arg-AMC substrate; pH 7.6
Excerpt: Clostripain. […] All data obtained was processed by pseudo-first order kinetics,

[5] = biological target: T1, Cathepsin B (Homo sapiens, UniProt P07858); assay: Cathepsin B incubation inhibition assay; assay type: biochemical; conditions: for kobs/[I] Cathepsin B: Table 5, gingipain and clostripain specific inhibitors
Procedure: Papain and Cathepsin B. The incubation method was used to measure the irreversible inhibition of papain and cathepsin B. […] Pseudo first-order inactivation rate constants were obtained from plots of ln vt/vo versus time.

[6] = biological target: S. mansoni legumain (Schistosoma mansoni, UniProt P09841, N192C); assay: S. mansoni legumain (SmAE) inhibition assay; assay type: biochemical
Procedure: Studies with the propenoyl hydrazides using the schistosome legumain […], (Schistosoma mansoni asparaginyl endopeptidase) were also performed. […] The actual active site enzyme concentration is unknown. The lyophilized enzyme ([…]) was reconstituted in 1.5 mL 0.5 M sodium acetate, pH 4.5 containing 4 mM DTT, and left to stand at 37° C. for 3-4 hours to allow for auto-activation of the zymogen. In a black 96-well microtiter plate, 50 μL of activated enzyme was added to an equal volume of 0.1 M citrate-phosphate buffer pH 6.8 containing 4 mM DTT. Inhibitor stock solutions (20 mM) were prepared in DMSO. Serial dilutions (using water) of inhibitor were added (as 1 μL aliquots) to yield concentrations of between 2 and 0.00002 μM inhibitor. […] After incubating various inhibitor concentrations with enzyme, 100 μL of the same buffer containing 20 μM substrate (Cbz-Ala-Ala-Asn-AMC) was added to the wells and the reaction monitored at room temperature with linear kinetics up to 20 minutes. Inhibitors are tested in duplicate. A plot of the RFU/min versus the inhibitor concentration [μM] permitted calculation of an IC50 value and estimation of the kobs/[I].

[7] = biological target: T2, Papain (Carica papaya, UniProt P00784); assay: Papain incubation inhibition assay; assay type: biochemical; conditions: for kinact/KI: pH 7.5, read-out: kobs/[I] Papain
T2 sequence (P00784 134-345): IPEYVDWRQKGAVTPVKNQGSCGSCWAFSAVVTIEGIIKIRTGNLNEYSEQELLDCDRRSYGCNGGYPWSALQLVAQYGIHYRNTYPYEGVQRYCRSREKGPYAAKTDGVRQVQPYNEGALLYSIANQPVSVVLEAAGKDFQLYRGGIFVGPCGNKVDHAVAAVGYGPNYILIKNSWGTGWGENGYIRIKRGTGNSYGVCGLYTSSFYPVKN
Procedure: Pseudo first-order inactivation rate constants were obtained from plots of ln vt/vo versus time.
The incubation method was also used for papain. The inhibition incubation buffer for papain was 50 mM Hepes buffer at pH 7.5, containing 2.5 mM DTT and 2.5 mM EDTA. The assay used the substrate Z-Phe-Arg-pNA (53.7 μM) in the same buffer. The approximate concentration of papain added to the incubation buffer was 0.29 mg/mL. The release of p-nitroanilide was monitored at 405 nm with a Molecular Devices Thermomax microplate reader.

[8] = biological target: cathepsin L (Homo sapiens, UniProt P07711); conditions: irreversible inhibition; background art; cited from earlier work
[9] = system: clan CD proteases; conditions: background art; cited from earlier work
[10] = biological target: T1, Cathepsin B; conditions: irreversible inhibition; background art; cited from earlier work
[11] = system: Trypsin; conditions: Table 5, gingipain and clostripain specific inhibitors
Procedure: Trypsin. Trypsin was purchased from Sigma Chemical Co. (St. Louis, Mo.) as a solid which was dissolved in a solution of 1 mM HCl at a concentration of 1 μM, kept at 0° C., and used immediately. […] The enzymatic assay was followed for 10 min with the 2.5 mM stock inhibitor solution and 1 mM stock substrate solution. The data was processed as a competitive reversible inhibitor by a Dixon plot.

[12] = biological target: T3, human legumain (Homo sapiens, UniProt Q99538); conditions: synthetic substrate; background art; cited from earlier work
T3 sequence (Q99538 18-323): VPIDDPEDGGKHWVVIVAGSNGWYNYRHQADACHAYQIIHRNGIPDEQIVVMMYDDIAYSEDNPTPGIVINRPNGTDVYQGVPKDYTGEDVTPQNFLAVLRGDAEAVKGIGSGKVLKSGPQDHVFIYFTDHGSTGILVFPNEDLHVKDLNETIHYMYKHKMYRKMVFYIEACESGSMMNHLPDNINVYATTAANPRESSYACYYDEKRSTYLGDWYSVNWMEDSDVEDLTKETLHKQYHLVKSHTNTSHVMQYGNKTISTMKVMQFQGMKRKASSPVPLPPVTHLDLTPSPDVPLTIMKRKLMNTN

Gingipain K, sequence (Q51817 229-1732 limits assumed): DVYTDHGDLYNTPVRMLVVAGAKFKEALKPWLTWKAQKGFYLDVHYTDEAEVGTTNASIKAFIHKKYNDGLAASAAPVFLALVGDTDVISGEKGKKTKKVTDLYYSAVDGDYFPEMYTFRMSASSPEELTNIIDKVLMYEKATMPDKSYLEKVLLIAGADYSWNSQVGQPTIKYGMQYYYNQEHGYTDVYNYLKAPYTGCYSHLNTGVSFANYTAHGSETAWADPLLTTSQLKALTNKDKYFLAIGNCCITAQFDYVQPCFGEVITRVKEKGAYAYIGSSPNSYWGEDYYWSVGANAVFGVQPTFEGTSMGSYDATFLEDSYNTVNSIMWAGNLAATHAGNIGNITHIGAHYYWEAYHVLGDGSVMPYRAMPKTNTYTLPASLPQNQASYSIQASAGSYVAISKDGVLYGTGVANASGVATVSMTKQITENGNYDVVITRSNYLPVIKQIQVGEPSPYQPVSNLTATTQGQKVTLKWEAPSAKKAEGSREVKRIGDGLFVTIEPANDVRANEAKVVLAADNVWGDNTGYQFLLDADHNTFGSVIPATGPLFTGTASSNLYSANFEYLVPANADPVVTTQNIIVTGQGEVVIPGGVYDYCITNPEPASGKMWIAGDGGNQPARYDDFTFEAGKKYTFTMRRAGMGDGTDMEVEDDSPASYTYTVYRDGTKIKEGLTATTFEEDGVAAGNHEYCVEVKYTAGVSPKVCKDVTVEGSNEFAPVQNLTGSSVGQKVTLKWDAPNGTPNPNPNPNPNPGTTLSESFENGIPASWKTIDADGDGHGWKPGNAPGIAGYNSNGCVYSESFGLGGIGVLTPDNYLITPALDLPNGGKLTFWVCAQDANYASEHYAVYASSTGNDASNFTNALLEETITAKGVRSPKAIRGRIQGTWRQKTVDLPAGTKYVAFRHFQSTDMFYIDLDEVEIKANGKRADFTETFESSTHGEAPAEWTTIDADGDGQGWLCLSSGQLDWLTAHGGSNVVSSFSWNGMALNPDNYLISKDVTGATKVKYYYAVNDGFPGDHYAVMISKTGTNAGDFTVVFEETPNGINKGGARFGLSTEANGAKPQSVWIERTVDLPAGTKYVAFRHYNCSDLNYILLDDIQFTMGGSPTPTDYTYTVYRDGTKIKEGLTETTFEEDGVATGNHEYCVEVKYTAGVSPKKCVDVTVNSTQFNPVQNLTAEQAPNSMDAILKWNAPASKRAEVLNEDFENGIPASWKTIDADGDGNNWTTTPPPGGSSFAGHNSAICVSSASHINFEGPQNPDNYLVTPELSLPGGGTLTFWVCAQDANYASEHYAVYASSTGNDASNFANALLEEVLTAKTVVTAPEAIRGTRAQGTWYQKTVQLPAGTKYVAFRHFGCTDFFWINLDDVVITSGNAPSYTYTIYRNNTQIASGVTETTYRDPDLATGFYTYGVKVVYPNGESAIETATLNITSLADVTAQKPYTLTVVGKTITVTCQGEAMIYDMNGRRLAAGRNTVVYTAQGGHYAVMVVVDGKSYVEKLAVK
Clostripain, sequence (P09870 51-526): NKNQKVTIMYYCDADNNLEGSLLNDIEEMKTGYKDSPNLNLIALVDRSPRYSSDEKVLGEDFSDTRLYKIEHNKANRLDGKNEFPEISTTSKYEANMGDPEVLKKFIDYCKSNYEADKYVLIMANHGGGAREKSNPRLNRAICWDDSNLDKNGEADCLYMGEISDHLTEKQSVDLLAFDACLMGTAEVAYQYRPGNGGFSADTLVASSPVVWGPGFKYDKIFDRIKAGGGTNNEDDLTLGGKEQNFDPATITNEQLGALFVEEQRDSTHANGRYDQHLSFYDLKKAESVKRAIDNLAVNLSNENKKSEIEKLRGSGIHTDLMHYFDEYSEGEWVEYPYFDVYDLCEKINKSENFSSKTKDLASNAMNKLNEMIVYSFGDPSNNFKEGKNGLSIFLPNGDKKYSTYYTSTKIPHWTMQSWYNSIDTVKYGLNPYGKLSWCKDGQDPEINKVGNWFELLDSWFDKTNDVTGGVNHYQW
S. mansoni legumain (Schistosoma mansoni, UniProt P09841, N192C), sequence (P09841 32-291 N192C): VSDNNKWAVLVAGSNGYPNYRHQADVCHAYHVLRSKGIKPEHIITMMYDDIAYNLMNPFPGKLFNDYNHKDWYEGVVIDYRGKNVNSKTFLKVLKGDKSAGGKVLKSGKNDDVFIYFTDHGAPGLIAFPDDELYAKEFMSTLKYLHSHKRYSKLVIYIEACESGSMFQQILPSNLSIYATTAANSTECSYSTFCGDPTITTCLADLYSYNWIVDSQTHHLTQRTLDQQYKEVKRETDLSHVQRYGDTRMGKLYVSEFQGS
cathepsin L, sequence (P07711 114-333, species assumed): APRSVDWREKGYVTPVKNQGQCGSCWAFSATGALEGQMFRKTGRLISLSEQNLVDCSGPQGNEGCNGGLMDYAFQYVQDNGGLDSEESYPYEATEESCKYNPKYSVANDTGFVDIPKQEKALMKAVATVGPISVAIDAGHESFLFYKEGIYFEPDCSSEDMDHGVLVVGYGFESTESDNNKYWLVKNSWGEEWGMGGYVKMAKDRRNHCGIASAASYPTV

Row | Structure (SMILES) | k2 Gingipain K [2] | k2 Gingipain R [3] | k2 Clostripain [4] | other results
1 | CC(C)C[C@H](NC(=O)[C@H]1O[C@@H]1C(=O)O)C(=O)NCCCCN=C(N)N [Example E-64, E-64] |  |  |  | inhibition of S. mansoni legumain [1]: not inhibited
2 | CC(C)CC(NC(=O)CCc1ccccc1)C(=O)NN(CCCCN)C(=O)C=CC(=O)N(Cc1ccccc1)Cc1ccccc1 (stereo not shown) [PhPr-Leu-ALys-CH═CH—CON(CH2Ph)2] | 2,130,000 M^−1s^−1 | 65 M⁻¹ s⁻¹ | 20,000 M^−1s^−1 | 
3 | CC(C)C[C@H](NC(=O)CCc1ccccc1)C(=O)NN(CCCCN)C(=O)C=CC(=O)NCc1ccccc1 [PhPr-Leu-ALys-CH═CH—CONHCH2Ph] | 236,000 M^−1s^−1 | 20 M⁻¹ s⁻¹ | 1,050 M^−1s^−1 | 
4 | CCOC(=O)C=CC(=O)N(CCCN)NC(=O)[C@H](CC(C)C)NC(=O)CCc1ccccc1 [PhPr-Leu-AOrn-CH═CH—COOEt] | 927,000 M^−1s^−1 | 32 M⁻¹ s⁻¹ | 788 M⁻¹ s⁻¹ | kobs/[I] Cathepsin B [5]: 3 M⁻¹ s⁻¹
5 | C[C@H](NC(=O)OCc1ccccc1)C(=O)N[C@@H](C)C(=O)NN(CC(N)=O)C(=O)/C=C/C(=O)N(Cc1ccccc1)Cc1ccccc1 [Cbz-Ala-Ala-AAsn-CH═CH—CON(Bzl)2, N^2—(N-BenzyloxycarbonylaIanylalanyl)-N^1-carbamoylmethyl-N^1-trans-(3-dibenzylcarbamoylpropenoyl)hydrazine] |  |  |  | IC50 [6]: 45 nM; kinact/KI ([6]; read-out: kobs/[I]): 5800 M⁻¹ s⁻¹; kinact/KI [7]: 1 M⁻¹ s⁻¹; kinact/KI [2]: 2 M⁻¹ s⁻¹
6 | CCOC(=O)C=CC(=O)N(CCCN)NC(=O)C(C)NC(=O)CCc1ccccc1 (stereo not shown) [PhPr-Ala-AOrn-CH═CH—COOEt] | 632,000 M^−1s^−1 | 18 M⁻¹ s⁻¹ |  | 
7 | CCOC(=O)/C=C/C(=O)N(CC(N)=O)NC(=O)[C@H](C)NC(=O)[C@H](C)NC(=O)OCc1ccccc1 [Cbz-Ala-Ala-AAsn-CH═CH—COOEt, N^2—(N-BenzyloxycarbonylalanylaIanyl)-N^1-carbamoylmethyl-N^1-trans-(3-ethylesterpropenoyl)hydrazine] |  |  |  | kinact/KI [2]: 6 M⁻¹ s⁻¹; kinact/KI ([5]; pH 6, read-out: kobs/[I] Cathepsin B): 1 M⁻¹ s⁻¹
8 | CC(C)CC(NC(=O)CCc1ccccc1)C(=O)NN(CCCCN)C(=O)C=CC(=O)OCc1ccccc1 (stereo not shown) [PhPr-Leu-ALys-CH═CH—COOCH2Ph] |  | 632 M⁻¹ s⁻¹ | 20,500 M^−1s^−1 | 
9 | CC(C)CCNC(=O)[C@H](CC(C)C)NC(=O)/C=C/C(=O)O (stereo in doubt) [fumarate derivative of E-64c, trans-HOOCCH═CH—CO-Leu-NH(CH2)2CH(CH3)2] |  |  |  | kapp cathepsin L [8]: 2272 M⁻¹ s⁻¹; inhibition of clan CD proteases [9]: do not inhibit; kapp cathepsin B [10]: 625 M⁻¹ s⁻¹
10 | C[C@H](NC(=O)OCc1ccccc1)C(=O)N[C@@H](C)C(=O)NN(CC(N)=O)C(=O)/C=C/C(=O)N1CCc2ccccc21 [Cbz-Ala-Ala-AAsn-CH═CH—CO-indoline, N^2—(N-Benzyloxycarbonylalanylalanyl)-N^1-carbamoylmethyl-N^1-trans-(3-(2,3-dihydroindol-1-yloxo)propenoyl)hydrazine] |  |  |  | IC50 [6]: 70 nM; kinact/KI [2]: 1 M⁻¹ s⁻¹
11 | CCOC(=O)C=CC(=O)N(CCCCN)NC(=O)[C@H](CC(C)C)NC(=O)CCc1ccccc1 [PhPr-Leu-ALys-CH═CH—COOEt] | 3,280,000 M^−1s^−1 | 289 M⁻¹ s⁻¹ | 40,750 M^−1s^−1 | kobs/[I] Trypsin [11]: 17 M⁻¹ s⁻¹; kobs/[I] Cathepsin B [5]: 9 M⁻¹ s⁻¹
12 | CC(C)C[C@H](NC(=O)CCc1ccccc1)C(=O)NN(CCCN)C(=O)C=CC(=O)NCc1ccccc1 [PhPr-Leu-AOrn-CH═CH—CONHCH2Ph] | 24,700 M^−1s^−1 | 71 M⁻¹ s⁻¹ |  | 
13 | CCOC(=O)C=CC(=O)N(CCCNC(=N)N)NC(=O)C(CC(C)C)NC(=O)CCc1ccccc1 (stereo not shown) [PhPr-Leu-AArg-CH═CH—COOEt] | 1,580 M^−1s^−1 |  | 69,600 M^−1s^−1 | 
14 | CC(C)C[C@H](NC(=O)CCc1ccccc1)C(=O)NN(CCCCN)C(=O)C=CC(=O)N(Cc1ccccc1)Cc1ccc2ccccc2c1 | 811,000 M^−1s^−1 | 98 M⁻¹ s⁻¹ | 17,500 M^−1s^−1 | 
15 | CC(C)C[C@H](NC(=O)CCc1ccccc1)C(=O)NN(CCCCN)C(=O)C=CC(=O)N(Cc1ccccc1)Cc1ccc(F)cc1 [PhPr-Leu-ALys-CH═CH—CON(Bzl)-p-CH2C6H4F] | 801,000 M^−1s^−1 | 75 M⁻¹ s⁻¹ | 13,800 M^−1s^−1 | 
16 | CC(C)CC(NC(=O)CCc1ccccc1)C(=O)NN(CCCNC(=N)N)C(=O)C=CC(=O)N(Cc1ccccc1)Cc1ccccc1 (stereo not shown) [PhPr-Leu-AArg-CH═CH—CON(CH2Ph)2] |  | 804,000 M^−1s^−1 | 474,000 M^−1s^−1 | 
17 | Cc1cc(=O)oc2cc(NC(=O)[C@H](CC(N)=O)NC(=O)[C@H](C)NC(=O)[C@H](C)NC(=O)OCc3ccccc3)ccc12 [Cbz-Ala-Ala-Asn-AMC] (Cbz-Ala-Ala-Asn-{AMC}) |  |  |  | Km [12]: 80 µM; Km ([1]; synthetic substrate): 90 µM
18 | CC(C)CC(NC(=O)CCc1ccccc1)C(=O)NN(CCCCN)C(=O)C=CC(=O)N(C)Cc1cccc2ccccc12 (stereo not shown) | 975,000 M^−1s^−1 | 576 M⁻¹ s⁻¹ | 639 M⁻¹ s⁻¹ | 
19 | CC(C)CCNC(=O)[C@H](CC(C)C)NC(=O)[C@H]1O[C@@H]1C(=O)O [Example E-64c, E-64c] |  |  |  | inhibition of clan CD proteases [9]: do not inhibit
20 | C[C@H](NC(=O)[C@H](Cc1ccccc1)NC(=O)OCc1ccccc1)C(=O)C=[N+]=[N-] [Cbz-Phe-Ala-CHN2] |  |  |  | inhibition of S. mansoni legumain [1]: not inhibited
21 | CC(C)CC(NC(=O)CCc1ccccc1)C(=O)NN(CCCCN)C(=O)C=CC(=O)N(Cc1cccc2ccccc12)Cc1cccc2ccccc12 (stereo not shown) [PhPr-Leu-ALys-CH═CH—CON(CH2-1-naphthyl2] | 1,890,000 M^−1s^−1 | 214 M⁻¹ s⁻¹ | 2,250 M^−1s^−1 | 
22 | CC(C)CC(NC(=O)CCc1ccccc1)C(=O)NN(CCCCN)C(=O)C=CC(=O)N(C)Cc1ccccc1 (stereo not shown) [PhPr-Leu-ALys-CH═CH—CON(Me)CH2Ph] | 1,360,000 M^−1s^−1 | 79 M⁻¹ s⁻¹ | 6,000 M^−1s^−1 | 
23 | CC(C)C[C@H](NC(=O)CCc1ccccc1)C(=O)NN(CCCN)C(=O)C=CC(=O)N(Cc1ccccc1)Cc1ccccc1 [PhPr-Leu-AOrn-CH═CH—CON(CH2Ph)2] | 61,600 M^−1s^−1 | 541 M⁻¹ s⁻¹ | 541 M⁻¹ s⁻¹ | 
24 | C[C@H](NC(=O)OCc1ccccc1)C(=O)N[C@@H](C)C(=O)NN(CC(N)=O)C(=O)/C=C/C(=O)NCCc1ccccc1 [Cbz-Ala-Ala-AAsn-CH═CH—CONHCH2CH2Ph, N^2—(N-Benzyloxycarbonylalanylalanyl)-N^1-carbamoylmethyl-N^1-trans-(3-phenethylcarbamoylpropenoyl)hydrazine] |  |  |  | IC50 [6]: 600 nM; kobs/[I] Papain ([7]; Table 6, legumain specific inhibitors, NI = no inhibition after 20 minutes of incubation): 12 M⁻¹ s⁻¹; kinact/KI [7]: 12 M⁻¹ s⁻¹
25 | CC(C)CC(NC(=O)CCc1ccccc1)C(=O)NN(CCCNC(=N)N)C(=O)C=CC(=O)NCc1ccccc1 (stereo not shown) [PhPr-Leu-AArg-CH═CH—CONHCH2Ph] |  | 555,000 M^−1s^−1 | 287,000 M^−1s^−1 | 

From patent publication US7482379B2, “Propenoyl hydrazides” (priority 2004, dated 2009)
